One assay deals with interferon (α) (IFN-α). Nature of the assay: Cytokine induction in human cells: IFN-α secreted by PBMC into culture media (ELISA). Format: cell-based. Particulars: Table 10; for minimal effective concentration: human PBMC, lowest tested concentration inducing IFN-α over usually 20 pg/mL, median where more than one experiment, read-out: Minimum Effective Concentration (μM) IFN; for Maximal Response (pg/mL) IFN: maximal response in dose response curve, * = below experimental background level, median. The source says:
(§1) Cytokine Induction in Human Cells
(§2) An in vitro human blood cell system is used to assess cytokine induction. Activity is based on the measurement of interferon (α) and tumor necrosis factor (α) (IFN-α and TNF-α, respectively) secreted into culture media as described by Testerman et. al. in “Cytokine Induction by the Immunomodulators Imiquimod and S-27609”, Journal of Leukocyte Biology, 58, 365-372 (September, 1995).
(§3) Blood Cell Preparation for Culture
(§4) Whole blood from healthy human donors is collected by venipuncture into vacutainer tubes or syringes containing EDTA. Peripheral blood mononuclear cells (PBMC) are separated from whole blood by density gradient centrifugation using HISTOPAQUE-1077 (Sigma, St. Louis, Mo.) or Ficoll-Paque Plus (Amersham Biosciences Piscataway, N.J.). Blood is diluted 1:1 with Dulbecco's Phosphate Buffered Saline (DPBS) or Hank's Balanced Salts Solution (HBSS). Alternately, whole blood is placed in Accuspin (Sigma) or LeucoSep (Oreiner Bio-One, Inc., Longwood, Fla.) centrifuge frit tubes containing density gradient medium. The PBMC layer is collected and washed twice with DPBS or HBSS and re-suspended at 4×10^6 cells/mL in RPMI complete. The PBMC suspension is added to 96 well flat bottom sterile tissue culture plates containing an equal volume of RPMI complete media containing test compound.
(§5) The compounds are solubilized in dimethyl sulfoxide (DMSO). The DMSO concentration should not exceed a final concentration of 1% for addition to the culture wells. The compounds are generally tested at concentrations ranging from 30-0.014 μM. Controls include cell samples with media only, cell samples with DMSO only (no compound), and cell samples with reference compound.
(§6) The solution of test compound is added at 60 μM to the first well containing RPMI complete and serial 3 fold dilutions are made in the wells. The PBMC suspension is then added to the wells in an equal volume, bringing the test compound concentrations to the desired range (usually 30-0.014 μM). The final concentration of PBMC suspension is 2×10^6 cells/mL. The plates are covered with sterile plastic lids, mixed gently and then incubated for 18 to 24 hours at 37° C. in a 5% carbon dioxide atmosphere.
(§7) Following incubation the plates are centrifuged for 10 minutes at 1000 rpm (approximately 200×g) at 4° C. The cell-free culture supernatant is removed and transferred to sterile polypropylene tubes. Samples are maintained at −30 to −70° C. until analysis. The samples are analyzed for IFN-α by ELISA and for TNF-α by IGEN/BioVeris Assay.
(§8) Interferon (α) and Tumor Necrosis Factor (α) Analysis
IFN-α concentration is determined with a human multi-subtype calorimetric sandwich ELISA (Catalog Number 41105) from PBL Biomedical Laboratories, Piscataway, N.J. Results are expressed in pg/mL.
(§9) In total, the data output of the assay consists of concentration values of TNF-α and IFN-α (y-axis) as a function of compound concentration (x-axis).
Analysis of the data has two steps. First, the greater of the mean DMSO (DMSO control wells) or the experimental background (usually 20 pg/mL for IFN-α and 40 pg/mL for TNF-α) is subtracted from each reading. If any negative values result from background subtraction, the reading is reported as “*”, and is noted as not reliably detectable. In subsequent calculations and statistics, “*”, is treated as a zero. Second, all background subtracted values are multiplied by a single adjustment ratio to decrease experiment to experiment variability. The adjustment ratio is the area of the reference compound in the new experiment divided by the expected area of the reference compound based on the past 61 experiments (unadjusted readings). […] The reference compound used is 2-[4-amino-2-ethoxymethyl-6,7,8,9-tetrahydro-α,α-dimethyl-1H-imidazo[4,5-c]quinolin-1-yl]ethanol hydrate (U.S. Pat. No. 5,352,784; Example 91) and the expected area is the sum of the median dose values from the past 61 experiments. […]
On the technique in general: ELISA stands for enzyme-linked immunosorbent assay.

For assay [1], the system named is tumor necrosis factor (α) (TNF-α). Nature of the assay: Cytokine induction in human cells: TNF-α secreted by PBMC into culture media (ORIGEN M-Series immunoassay). To be noted: Table 10; for minimal effective concentration: human PBMC, lowest tested concentration inducing TNF-α over usually 40 pg/mL, median where more than one experiment, read-out: Minimum Effective Concentration (μM) TNF; for Maximal Response (pg/mL) TNF: maximal response in dose response curve, * = below experimental background level, median. Format: cell-based.
Source text: as §1, §2, §3, §4, §5, §6, §7, §8
The TNF-α concentration is determined by ORIGEN M-Series Immunoassay and read on an IGEN M-8 analyzer from BioVeris Corporation, formerly known as IGEN International, Gaithersburg, Md. The immunoassay uses a human TNF-α capture and detection antibody pair (Catalog Numbers AHC3419 and AHC3712) from Biosource International, Camarillo, Calif. Results are expressed in pg/mL.
as §9
Analysis of the data has two steps. First, the greater of the mean DMSO (DMSO control wells) or the experimental background (usually 20 pg/mL for IFN-α and 40 pg/mL for TNF-α) is subtracted from each reading. If any negative values result from background subtraction, the reading is reported as “*”, and is noted as not reliably detectable. In subsequent calculations and statistics, “*”, is treated as a zero. Second, all background subtracted values are multiplied by a single adjustment ratio to decrease experiment to experiment variability. The adjustment ratio is the area of the reference compound in the new experiment divided by the expected area of the reference compound based on the past 61 experiments (unadjusted readings). […]

This note sets out measurements from patent US8846710B2, “Method of preferentially inducing the biosynthesis of interferon” (3M Innovative Properties Company, priority 2005, dated 2014).

As to `CCCC(=O)NCCCCn1c(COCC)nc2c(N)nc3cc(-c4cccnc4)ccc3c21` [Analog 31], in the assay with interferon (α) (IFN-α), the minimal effective concentration came to 0.12 µM and the “Maximal Response (pg/mL) IFN” value is reported as 965 pg/mL. In assay [1], the minimal effective concentration turned out to be 1.11 µM and the “Maximal Response (pg/mL) TNF” value came out at 991 pg/mL.

For `CCCC(=O)NCCCCn1c(CCC)nc2c(N)nc3cc(-c4cccnc4)ccc3c21` [Analog 32], in the assay on interferon (α) (IFN-α), the minimal effective concentration came out at 0.12 µM and the “Maximal Response (pg/mL) IFN” value is 862 pg/mL. Moreover, in assay [1], the minimal effective concentration stood at 0.37 µM and the “Maximal Response (pg/mL) TNF” value turned out to be 1647 pg/mL.

As for `CCOCc1nc2c(N)nc3cc(-c4cccnc4)ccc3c2n1CCCCNC(=O)NC1CCCC1` [Analog 33], in the assay on interferon (α) (IFN-α), the minimal effective concentration was 0.014 µM and the “Maximal Response (pg/mL) IFN” value is on record as 925 pg/mL. For the same molecule, in assay [1], the minimal effective concentration is reported as 1.11 µM and the “Maximal Response (pg/mL) TNF” value is on record as 1618 pg/mL.

Consider `CCCc1nc2c(N)nc3cc(-c4cccnc4)ccc3c2n1CCCCNC(=O)NC1CCCC1` [Analog 34], for which, in the assay on interferon (α) (IFN-α), the minimal effective concentration turned out to be 0.014 µM and the “Maximal Response (pg/mL) IFN” value was 649 pg/mL. Moreover, in assay [1], the minimal effective concentration was 0.37 µM and the “Maximal Response (pg/mL) TNF” value is recorded as 9019 pg/mL.

As to `CCOCc1nc2c(N)nc3cc(-c4cccnc4)ccc3c2n1CCCCNC(=O)C1CCCC1` [Analog 35], in the assay on interferon (α) (IFN-α), the minimal effective concentration is 0.04 µM and the “Maximal Response (pg/mL) IFN” value turned out to be 969 pg/mL. In addition, in assay [1], the minimal effective concentration is 0.37 µM and the “Maximal Response (pg/mL) TNF” value was determined as 1366 pg/mL.

With `CCCc1nc2c(N)nc3cc(-c4cccnc4)ccc3c2n1CCCCNC(=O)C1CCCC1` [Analog 36], in the assay with interferon (α) (IFN-α), the minimal effective concentration is given as 0.12 µM and the “Maximal Response (pg/mL) IFN” value was 521 pg/mL. Moreover, in assay [1], the minimal effective concentration amounted to 0.37 µM and the “Maximal Response (pg/mL) TNF” value is 2222 pg/mL.

Consider `CCOCc1nc2c(N)nc3cc(-c4cccnc4)ccc3c2n1CCCCNC(=O)C(C)C` [Analog 37], for which, in the assay with interferon (α) (IFN-α), the minimal effective concentration worked out at 0.12 µM and the “Maximal Response (pg/mL) IFN” value is given as 1194 pg/mL. In assay [1], the minimal effective concentration is recorded as 1.11 µM and the “Maximal Response (pg/mL) TNF” value was 728 pg/mL.

As to `CCCc1nc2c(N)nc3cc(-c4cccnc4)ccc3c2n1CCCCNC(=O)C(C)C` [Analog 38], in the assay on interferon (α) (IFN-α), the minimal effective concentration was 0.12 µM and the “Maximal Response (pg/mL) IFN” value is 1610 pg/mL. In addition, in assay [1], the minimal effective concentration is reported as 0.37 µM and the “Maximal Response (pg/mL) TNF” value came to 960 pg/mL.

As for `COCCc1nc2c(N)nc3cc(-c4cccnc4)ccc3c2n1CCCN1CCCC1=O` [Analog 39], in the assay on interferon (α) (IFN-α), the minimal effective concentration is reported as 0.12 µM and the “Maximal Response (pg/mL) IFN” value came to 753 pg/mL. In assay [1], the minimal effective concentration was found to be 1.11 µM and the “Maximal Response (pg/mL) TNF” value is reported as 380 pg/mL.

In the case of `COCCc1nc2c(N)nc3cc(-c4ccncc4)ccc3c2n1CCCN1CCCC1=O` [Analog 40], in the assay on interferon (α) (IFN-α), the minimal effective concentration was 0.37 µM and the “Maximal Response (pg/mL) IFN” value is on record as 1179 pg/mL. Moreover, in assay [1], the minimal effective concentration stood at 3.33 µM and the “Maximal Response (pg/mL) TNF” value was 943 pg/mL.

With `CCOCc1nc2c(N)nc3cc(-c4cccc(C)c4)ccc3c2n1CC(C)(C)O` [Analog 41], in the assay on interferon (α) (IFN-α), the minimal effective concentration came to 0.014 µM and the “Maximal Response (pg/mL) IFN” value was determined as 541 pg/mL. In assay [1], the minimal effective concentration came to 0.12 µM and the “Maximal Response (pg/mL) TNF” value was found to be 10184 pg/mL.

Regarding `CCOCc1nc2c(N)nc3cc(-c4ccc(C)cc4)ccc3c2n1CC(C)(C)O` [Analog 42], in the assay with interferon (α) (IFN-α), the minimal effective concentration stood at 0.12 µM and the “Maximal Response (pg/mL) IFN” value was 650 pg/mL. Further, in assay [1], the minimal effective concentration came to 0.12 µM and the “Maximal Response (pg/mL) TNF” value is reported as 4456 pg/mL.

Turning to `CCOCc1nc2c(N)nc3cc(-c4cccc(O)c4)ccc3c2n1CC(C)(C)O` [Analog 43], in the assay on interferon (α) (IFN-α), the minimal effective concentration is 0.04 µM and the “Maximal Response (pg/mL) IFN” value amounted to 740 pg/mL. For the same molecule, in assay [1], the minimal effective concentration is given as 0.04 µM and the “Maximal Response (pg/mL) TNF” value is listed as 3955 pg/mL.
